Data reported in paper PMC11184554, “Nature-Inspired Gallinamides Are Potent Antischistosomal Agents: Inhibition of the Cathepsin B1 Protease Target and Binding Mode Analysis” (ACS Infectious Diseases, 2024).
“And” between values parts separate entries of the source, which are not always exact repeats. Equal values may be shown once.

Key:
Format in all cases: biochemical
cathepsins B and L = assay: Protease activity in S. mansoni adult extract, Cbz–Phe–Arg–AMC; conditions: 1 μM gallinamide A, endopeptidase, substrate Cbz–Phe–Arg–AMC, mean ± SD
Description: (§1) We investigated whether gallinamide A inhibits the activity of the major proteases associated with proteolytic digestion in the adult schistosome gut. The digestive protease network includes the cysteine proteases cathepsins B, C, L from clan CA and legumain from clan CD, and an aspartic protease cathepsin D from clan AA.[11],[12] Their respective activities can be measured in protein extracts of S. mansoni using a kinetic assay with specific fluorogenic substrates. In addition, these activities can be attributed to particular proteases based on sensitivity to selective inhibitors[30]−[32] (Table 1). Accordingly, we exposed worm extracts to gallinamide A and analyzed the individual protease activities. Gallinamide A inhibited both the carboxydipeptidase (98%) and endopeptidase activities (94%) of cathepsin B as measured with the respective substrates, Abz–Phe–Arg–Val–Nph[15] and Cbz–Arg–Arg–AMC[33],[34] (Table 1). The activity measured with the Cbz–Phe–Arg–AMC substrate,[11],[13],[16],[33],[35] which can be cleaved by both cathepsins B and L, was inhibited by gallinamide A to a lesser extent (72%). […]
(§2) Proteolytic activities in S. mansoni adult extracts were measured in a continuous kinetic assay using the following peptidyl fluorogenic substrates (Bachem) or internally quenched FRET substrates (IOCB): 50 μM Cbz–Phe–Arg–AMC for cathepsins B and L,[13],[15] […]

cathepsin B = assay: Protease activity in S. mansoni adult extract, cathepsin B substrates (continuous fluorometric assay); conditions: 1 μM gallinamide A, relative to uninhibited control, mean ± SD
Description: as §1, §2

cathepsin C = target: T1, cathepsin C (Schistosoma mansoni, UniProt Q26563); assay: Protease activity in S. mansoni adult extract, Gly–Arg–AMC; conditions: 1 μM gallinamide A, exopeptidase (aminodipeptidase), substrate Gly–Arg–AMC, mean ± SD
T1 construct: from tissue; host or cells: soluble protein extract of mixed sex S. mansoni adults
T1 sequence (Q26563 218-454): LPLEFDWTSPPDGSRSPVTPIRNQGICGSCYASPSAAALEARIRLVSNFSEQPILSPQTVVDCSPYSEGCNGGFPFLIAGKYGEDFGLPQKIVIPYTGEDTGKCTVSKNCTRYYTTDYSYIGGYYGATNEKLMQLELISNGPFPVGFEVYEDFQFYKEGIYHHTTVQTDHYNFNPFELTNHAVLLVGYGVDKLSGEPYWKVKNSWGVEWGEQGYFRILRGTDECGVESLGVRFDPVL
Description: as §1, §2

legumain = assay: Protease activity in S. mansoni adult extract, Cbz–Ala–Ala–Asn–AMC; conditions: 1 μM gallinamide A, substrate Cbz–Ala–Ala–Asn–AMC, in the presence of E-64, mean ± SD
Description: as §1, §2

cathepsin D = assay: Protease activity in S. mansoni adult extract, FRET substrate; conditions: 1 μM gallinamide A, substrate Abz–Lys–Pro–Ala–Glu–Phe–Nph–Ala–Leu, in the presence of E-64, mean ± SD
Description: as §1, §2

In the case of `CC[C@H](C)[C@@H](C(=O)O[C@@H](CC(C)C)C(=O)N[C@@H](CC(C)C)C(=O)N[C@@H](C)/C=C/C(=O)N1C(=O)C=C(OC)[C@@H]1C)N(C)C` [gallinamide A], the “inhibition (%)” value (cathepsins B and L) was 72%, the “inhibition (%)” value (cathepsins B and L; listed as Gallinamide A) was 71.9 ± 2.0% and the “inhibition (%)” value (cathepsin B; endopeptidase activity, substrate Cbz–Arg–Arg–AMC) was 94% and 93.7 ± 0.3%. For the same compound, the “inhibition (%)” value (cathepsin B; exopeptidase (carboxydipeptidase) activity, substrate Abz–Phe–Arg–Val–Nph) was 98.0 ± 2.2%, the “inhibition (%)” value (cathepsin C) was under 10% and the “inhibition (%)” value (cathepsin C; listed as Gallinamide A) was 2.8 ± 1.9%. The “inhibition (%)” value (legumain) was under 10%, the “inhibition (%)” value (legumain; listed as Gallinamide A) was 8.2 ± 0.1% and the “inhibition (%)” value (cathepsin D) was under 10%. For the same compound, the “inhibition (%)” value (cathepsin D; listed as Gallinamide A) was 0.01 ± 1.54%.
